Measurements reported in US20250059208A1, “KRAS MODULATING COMPOUNDS” (priority 2023, published 2025).
Read-outs that look alike come from different tables or passages of the source.

Columns and labels:
[1] = target: GDP-loaded wild-type KRAS (WT) (Homo sapiens, UniProt P01116); test: KRAS (GDP) biochemical TR-FRET probe displacement assay, WT; format: binding; conditions: 2 hours at room temperature
Experimental: (§1) • Compounds were tested for binding to GDP-loaded wild-type KRAS (WT), KRAS-G12C, KRAS-G12D, and KRAS-G12V in a 384-well assay format using a TR-FRET probe displacement assay in buffer consisting of 50 mM Hepes (pH 7.4), 150 mM NaCl. 5 mM MgCl2 and 0.005% Tween-20. 0.03 nM KRAS was used in this assay with 0.02 nM Eu-streptavidin and 12 nM Cy-5 labelled probe. Compounds were serially diluted (1:3) in DMSO. The LabCyte ECHO Acoustic dispenser was used to pre-spot the assay plates (384-well Non-Binding Surface plates, Corning, Catalog #3824) with 50 nL of compound. 5 μL of 2× enzyme concentration was added to the pre-spotted plates and incubated for 30 minutes before adding 5 μL of 2× concentration of Eu-streptavidin and Cy-5 labelled probe (10 μL final reaction volume). The plates were incubated at room temperature for 2 hours before measuring TR-FRET ratio (665 nm/615 nm) on the Envision multimode plate reader. The ratios were normalized to a positive (saturating concentration of known inhibitor) and negative (DMSO) control and plotted against the log of compound concentration. […]

[2] = target: GDP-loaded KRAS-G12C (Homo sapiens, UniProt P01116, G12C); test: KRAS (GDP) biochemical TR-FRET probe displacement assay, G12C; format: binding; conditions: 2 hours at room temperature
Sequence of GDP-loaded KRAS-G12C (P01116 1-188 isoform P01116-2 G12C): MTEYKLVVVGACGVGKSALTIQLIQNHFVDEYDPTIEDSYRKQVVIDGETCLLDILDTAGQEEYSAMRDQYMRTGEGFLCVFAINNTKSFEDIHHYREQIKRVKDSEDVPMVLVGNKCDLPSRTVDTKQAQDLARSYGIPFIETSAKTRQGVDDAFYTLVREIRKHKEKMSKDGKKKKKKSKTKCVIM
Experimental: as §1

[3] = target: GDP-loaded KRAS-G12V (Homo sapiens, UniProt P01116, G12V); test: KRAS (GDP) biochemical TR-FRET probe displacement assay, G12V; format: binding; conditions: 2 hours at room temperature
Sequence of GDP-loaded KRAS-G12V (P01116 1-188 isoform P01116-2 G12V): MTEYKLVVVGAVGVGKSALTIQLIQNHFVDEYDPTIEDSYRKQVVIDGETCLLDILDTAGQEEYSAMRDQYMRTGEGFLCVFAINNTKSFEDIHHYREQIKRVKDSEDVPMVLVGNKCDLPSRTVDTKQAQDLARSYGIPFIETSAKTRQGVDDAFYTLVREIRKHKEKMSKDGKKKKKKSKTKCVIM
Experimental: as §1

[4] = target: GDP-loaded KRAS-G12D (Homo sapiens, UniProt P01116, G12D); test: KRAS (GDP) biochemical TR-FRET probe displacement assay, G12D; format: binding; conditions: 2 hours at room temperature
Sequence of GDP-loaded KRAS-G12D (P01116 1-188 isoform P01116-2 G12D): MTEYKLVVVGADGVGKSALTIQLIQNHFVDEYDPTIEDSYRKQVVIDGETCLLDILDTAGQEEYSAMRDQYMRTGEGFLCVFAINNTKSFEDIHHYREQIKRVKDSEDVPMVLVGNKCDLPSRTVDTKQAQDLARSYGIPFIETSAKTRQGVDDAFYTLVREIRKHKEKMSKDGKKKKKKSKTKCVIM
Experimental: as §1

[5] = tested on: cellular pERK in Kuramochi (WT KRAS) cell-line; test: Cell based pERK assay, Kuramochi; conditions: Kuramochi (WT KRAS) cells, 2 hours compound incubation, HTRF Phospho-ERK1/2
Experimental: (§2) Compounds were tested in a 384-well assay format for their ability to inhibit cellular pERK in Kuramochi (WT KRAS), MIA-PaCa-2 (KRAS-G12C), ASPC-1 (KRAS G12D), and NCI-H441 (KRAS-G12V) cell-lines. Compounds were serially diluted (1:3) in DMSO. On day −1, 80 μL of cells were plated per well in the 384 well tissue-culture plates (Greiner: Cat #781080) to seed 5000 cells per wells of AsPC-1 or 7500 cells of MIA-PaCa-2, NCI-H441, and Kuramochi cell lines in RPMI (Corning: Cat #10-040-CM) with 10% fetal bovine serum (FBS) (HyClone: Cat #SH30071-03) and IX penicillin-streptomycin-glutamate (PSG) (Corning: Cat #30-009-C1) for […] and Kuramochi cell lines and DMEM (Corning: Cat #15-018-CM) with 10% FBS and 1×PSG for MIA-PaCa-2 cell line. The plates were then incubated overnight at 37° C. and 5% CO2. On day 0, 400 nL of compound/well was added into the cell plates and mixed 5 times by pipetting using a Beckmann Biomek FX. The cell plates were then incubated for 2 hours at 37° C. and 5% CO2. HTRF Advanced Phospho-ERK1/2 (THR202/TYR204) Detection Kits (PerkinElmer: Cat #64AERPEG) were used to prepare the lysis and detection solution according to manufacturer protocol. Following the 2 hour incubation, 70 μL of medium was aspirated from the plates and 10 μL of lysis and detection solution was added to the plates using a Biotek EL406 washer and dispenser. Plates were sealed and stored overnight at room temperature. HTRF ratio (665 nm/615 nm) was read by Envision multimode reader (PerkinElmer) the next day. The TR-FRET ratios were normalized to a positive (saturating concentration of known inhibitor) and negative (DMSO) control and plotted against the log of compound concentration.

[6] = tested on: cellular pERK in MIA-PaCa-2 (KRAS-G12C) cell-line; test: Cell based pERK assay, MIA-PaCa-2; conditions: Homo sapiens; MIA-PaCa-2 (KRAS-G12C) cells, 2 hours compound incubation, HTRF Phospho-ERK1/2; read-out: MIAPaCa2 pERK EC50
Experimental: as §2

[7] = tested on: cellular pERK in NCI-H441 (KRAS-G12V) cell-line; test: Cell based pERK assay, NCI-H441; conditions: Homo sapiens; NCI-H441 (KRAS-G12V) cells, 2 hours compound incubation, HTRF Phospho-ERK1/2
Experimental: as §2

[8] = tested on: cellular pERK in ASPC-1 (KRAS G12D) cell-line; test: Cell based pERK assay, ASPC-1; conditions: ASPC-1 (KRAS G12D) cells, 2 hours compound incubation, HTRF Phospho-ERK1/2
Experimental: as §2

Sequence of GDP-loaded wild-type KRAS (WT) (P01116 1-188 isoform P01116-2): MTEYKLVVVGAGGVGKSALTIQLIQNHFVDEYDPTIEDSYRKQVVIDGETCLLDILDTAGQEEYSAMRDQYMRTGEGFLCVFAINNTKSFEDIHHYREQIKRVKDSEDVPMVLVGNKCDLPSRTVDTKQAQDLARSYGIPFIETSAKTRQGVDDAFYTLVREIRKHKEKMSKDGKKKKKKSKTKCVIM

SMILES | IC50 [1] | IC50 [2] | IC50 [3] | IC50 [4] | EC50 ([5]; 2 h) | EC50 [6] | EC50 [7] | EC50 ([8]; Homo sapiens, ASPC1, 2 h) | EC50 [5] | EC50 ([8]; read-out: AsPC1 pERK EC50)
C#Cc1c(F)ccc2cc(O)cc(-c3ncc4c(N5CC6(F)CCC(F)(C5)N6)nc(OC[C@@H]5CC[C@]6(COc7cc(C(F)(F)F)ncn7)CCCN56)nc4c3F)c12 [Example 2-11] | 12.3 nM | 16.8 nM | 22.2 nM | 11.6 nM | 24.5 nM | 5.79 nM | 56.3 nM | 54.5 nM |  | 
C#Cc1c(F)ccc2cc(N)cc(-c3ncc4c(N5CC6(F)CCC(F)(C5)N6)nc(OC[C@@]56CCCN5C[C@H](F)C6)nc4c3F)c12 [Example 5-1, 4-(4-(1,5-difluoro-3,8-diazabicyclo[3.2.1]octan-3-yl)-8-fluoro-2-(((2R,7aS)-2-fluorotetrahydro-1H-pyrrolizin-7a(5H)-yl)methoxy)pyrido[4,3-d]pyrimidin-7-yl)-5-ethynyl-6-fluoronaphthalen-2-amine] | 2.31 nM | 2.78 nM | 7.59 nM | 15.1 nM | 2.94 nM | 4.99 nM | 8.41 nM | 25.9 nM |  | 
C#Cc1c(F)ccc2cc(O)cc(-c3ncc4c(N5CC6(F)CCC(F)(C5)N6)nc(OC[C@@]56CCCN5[C@H](COc5cc(C(F)(F)F)cnn5)CC6)nc4c3F)c12 [Example 2-4] | 0.21 nM | 0.27 nM | 0.24 nM | 0.36 nM | 5.56 nM | 0.29 nM | 9.86 nM | 14.9 nM |  | 
C#Cc1c(F)ccc2cccc(-c3ncc4c(N5CC6(F)CCC(F)(C5)N6)nc(OC[C@@]56CCCN5C[C@H](F)C6)nc4c3F)c12 [Example 1-2] | 26.6 nM | 38 nM | 84 nM | ≥ 100 nM | 11.9 nM | 32.2 nM | 66 nM | 194 nM |  | 
C#Cc1c(F)ccc2cccc(-c3ncc4c(N5C[C@]6(F)CC[C@](F)(C5)N6)nc(OCC56CCCN5CCC6)nc4c3F)c12 [Example 3-1, 4-((1R,5S)-1,5-difluoro-3,8-diazabicyclo[3.2.1]octan-3-yl)-7-(8-ethynyl-7-fluoronaphthalen-1-yl)-8-fluoro-2-((tetrahydro-1H-pyrrolizin-7a(5H)-yl)methoxy)pyrido[4,3-d]pyrimidine] |  |  |  |  | 8.71 nM | 38.4 nM | 117 nM | 368 nM |  | 
C#Cc1c(F)ccc2cc(O)cc(-c3ncc4c(N5C[C@]6(F)CC[C@](F)(C5)N6)nc(OCC56CCCN5CCC6)nc4c3F)c12 [Example 2-1, 4-(4-((1R,5S)-1,5-difluoro-3,8-diazabicyclo[3.2.1]octan-3-yl)-8-fluoro-2-((tetrahydro-1H-pyrrolizin-7a(5H)-yl)methoxy)pyrido[4,3-d]pyrimidin-7-yl)-5-ethynyl-6-fluoronaphthalen-2-ol] |  |  |  |  | 11.5 nM | 6.9 nM | 17.9 nM | 71.1 nM |  | 
N#Cc1c(N)sc2c(F)ccc(-c3c(Cl)cc4c(N5CC6(F)CCC(F)(C5)N6)nc(OC[C@@]56CCCN5C[C@H](F)C6)nc4c3F)c12 (single isomer, unassigned) [Example 8-1] | 0.13 nM | 1.03 nM | 1 nM | 1.46 nM |  |  |  |  | 2.57 nM | 25.3 nM
CCc1c(F)ccc2cccc(-c3ncc4c(N5CC6(F)CCC(F)(C5)N6)nc(OC[C@@]56CCCN5C[C@H](F)C6)nc4c3F)c12 [Example 4-2] |  |  |  |  | 53.3 nM | 301 nM | 507 nM | 1030 nM |  | 
C#Cc1c(F)ccc2cc(O)cc(-c3c(F)cc4c(N5CC6(F)CCC(F)(C5)N6)nc(OC[C@@]56CCCN5C[C@H](F)C6)nc4c3F)c12 (single isomer, unassigned) [Example 9-2] | 66.3 nM |  | 72.6 nM | 97.8 nM |  |  |  |  | > 1000 nM | > 1000 nM
